Source: the CheMixHub viscosity set
Values joined by “and” are separate entries in the source; they are usually repeats but may differ in a detail not shown here. Identical values can stand only once. ± gives the uncertainty stated by the source.

Experiment: xn = mol fraction of the nth substance listed

CCCCCCC + CCCO
Details | viscosity
293.15 K, 101 kPa, x1 = 0.102 | 1.641 ± 0.019 mPa·s
293.15 K, 101 kPa, x1 = 0.2018 | 1.291 ± 0.015 mPa·s
293.15 K, 101 kPa, x1 = 0.299 | 1.052 ± 0.012 mPa·s
293.15 K, 101 kPa, x1 = 0.4005 | 0.8426 ± 0.01 mPa·s
293.15 K, 101 kPa, x1 = 0.5017 | 0.6995 ± 0.0084 mPa·s
293.15 K, 101 kPa, x1 = 0.6033 | 0.5899 ± 0.0072 mPa·s
293.15 K, 101 kPa, x1 = 0.7025 | 0.5126 ± 0.0064 mPa·s
293.15 K, 101 kPa, x1 = 0.801 | 0.4793 ± 0.0061 mPa·s
293.15 K, 101 kPa, x1 = 0.8918 | 0.4475 ± 0.0057 mPa·s
298.15 K, 100 kPa, x1 = 0.0569 | 1.654 ± 0.022 mPa·s
298.15 K, 100 kPa, x1 = 0.1025 | 1.453 ± 0.019 mPa·s
298.15 K, 100 kPa, x1 = 0.1996 | 1.138 ± 0.015 mPa·s
298.15 K, 100 kPa, x1 = 0.3052 | 0.9066 ± 0.012 mPa·s
298.15 K, 100 kPa, x1 = 0.4045 | 0.75 ± 0.0098 mPa·s
298.15 K, 100 kPa, x1 = 0.5038 | 0.6265 ± 0.0082 mPa·s
298.15 K, 100 kPa, x1 = 0.6039 | 0.5366 ± 0.0071 mPa·s
298.15 K, 100 kPa, x1 = 0.7066 | 0.4713 ± 0.0062 mPa·s
298.15 K, 100 kPa, x1 = 0.8001 | 0.4307 ± 0.0057 mPa·s
298.15 K, 100 kPa, x1 = 0.8488 | 0.4168 ± 0.0056 mPa·s
298.15 K, 100 kPa, x1 = 0.9551 | 0.4008 ± 0.0054 mPa·s
298.15 K, 100 kPa, x2 = 0.1648 | 0.4406 ± 0.012 mPa·s
298.15 K, 100 kPa, x2 = 0.3402 | 0.5464 ± 0.015 mPa·s
298.15 K, 100 kPa, x2 = 0.5002 | 0.7014 ± 0.019 mPa·s
298.15 K, 100 kPa, x2 = 0.6602 | 0.9498 ± 0.026 mPa·s
298.15 K, 100 kPa, x2 = 0.8383 | 1.294 ± 0.035 mPa·s
298.15 K, 101 kPa, x1 = 0.0164 | 1.804 ± 0.011 mPa·s
298.15 K, 101 kPa, x1 = 0.102 | 1.477 ± 0.017 mPa·s
298.15 K, 101 kPa, x1 = 0.2018 | 1.166 ± 0.014 mPa·s
298.15 K, 101 kPa, x1 = 0.299 | 0.9499 ± 0.011 mPa·s
298.15 K, 101 kPa, x1 = 0.4005 | 0.7687 ± 0.0092 mPa·s
298.15 K, 101 kPa, x1 = 0.5017 | 0.6453 ± 0.0078 mPa·s
298.15 K, 101 kPa, x1 = 0.6033 | 0.5511 ± 0.0068 mPa·s
298.15 K, 101 kPa, x1 = 0.7025 | 0.4886 ± 0.0061 mPa·s
298.15 K, 101 kPa, x1 = 0.801 | 0.4419 ± 0.0056 mPa·s
298.15 K, 101 kPa, x1 = 0.8918 | 0.4174 ± 0.0054 mPa·s
298.15 K, 101 kPa, x2 = 0.0584 | 0.39 ± 0.003 mPa·s
298.15 K, 101 kPa, x2 = 0.1192 | 0.408 ± 0.004 mPa·s
298.15 K, 101 kPa, x2 = 0.1482 | 0.416 ± 0.004 mPa·s
298.15 K, 101 kPa, x2 = 0.2647 | 0.454 ± 0.004 mPa·s
298.15 K, 101 kPa, x2 = 0.3436 | 0.489 ± 0.004 mPa·s
298.15 K, 101 kPa, x2 = 0.4121 | 0.53 ± 0.004 mPa·s
298.15 K, 101 kPa, x2 = 0.5026 | 0.606 ± 0.005 mPa·s
298.15 K, 101 kPa, x2 = 0.5659 | 0.679 ± 0.005 mPa·s
298.15 K, 101 kPa, x2 = 0.654 | 0.811 ± 0.006 mPa·s
298.15 K, 101 kPa, x2 = 0.6877 | 0.872 ± 0.006 mPa·s
298.15 K, 101 kPa, x2 = 0.7447 | 0.994 ± 0.007 mPa·s
298.15 K, 101 kPa, x2 = 0.8298 | 1.222 ± 0.008 mPa·s
298.15 K, 101.33 kPa, x1 = 0.0127 | 1.873 ± 0.014 mPa·s
298.15 K, 101.33 kPa, x2 = 0.0468 | 0.393 ± 0.0043 mPa·s
298.15 K, 101.33 kPa, x2 = 0.0919 | 0.409 ± 0.006 mPa·s
298.15 K, 101.33 kPa, x2 = 0.0989 | 0.403 ± 0.0044 mPa·s
298.15 K, 101.33 kPa, x2 = 0.2079 | 0.4331 ± 0.0045 mPa·s
298.15 K, 101.33 kPa, x2 = 0.2269 | 0.46 ± 0.006 mPa·s
298.15 K, 101.33 kPa, x2 = 0.2621 | 0.454 ± 0.0046 mPa·s
298.15 K, 101.33 kPa, x2 = 0.34 | 0.52 ± 0.007 mPa·s
298.15 K, 101.33 kPa, x2 = 0.362 | 0.4992 ± 0.0048 mPa·s
298.15 K, 101.33 kPa, x2 = 0.4038 | 0.571 ± 0.008 mPa·s
298.15 K, 101.33 kPa, x2 = 0.4569 | 0.576 ± 0.0053 mPa·s
298.15 K, 101.33 kPa, x2 = 0.521 | 0.682 ± 0.009 mPa·s
298.15 K, 101.33 kPa, x2 = 0.5667 | 0.69 ± 0.0059 mPa·s
298.15 K, 101.33 kPa, x2 = 0.598 | 0.776 ± 0.01 mPa·s
298.15 K, 101.33 kPa, x2 = 0.6616 | 0.876 ± 0.011 mPa·s
298.15 K, 101.33 kPa, x2 = 0.6636 | 0.832 ± 0.0068 mPa·s
298.15 K, 101.33 kPa, x2 = 0.7478 | 0.999 ± 0.0078 mPa·s
298.15 K, 101.33 kPa, x2 = 0.7849 | 1.154 ± 0.015 mPa·s
298.15 K, 101.33 kPa, x2 = 0.8202 | 1.187 ± 0.0092 mPa·s
298.15 K, 101.33 kPa, x2 = 0.879 | 1.447 ± 0.019 mPa·s
298.15 K, 101.33 kPa, x2 = 0.9458 | 1.659 ± 0.013 mPa·s
298.15 K, 101.33 kPa, x2 = 0.967 | 1.811 ± 0.023 mPa·s
303.15 K, 101 kPa, x1 = 0.0164 | 1.609 ± 0.01 mPa·s
303.15 K, 101 kPa, x1 = 0.102 | 1.319 ± 0.015 mPa·s
303.15 K, 101 kPa, x1 = 0.2018 | 1.047 ± 0.012 mPa·s
303.15 K, 101 kPa, x1 = 0.299 | 0.8669 ± 0.01 mPa·s
303.15 K, 101 kPa, x1 = 0.4005 | 0.7025 ± 0.0084 mPa·s
303.15 K, 101 kPa, x1 = 0.5017 | 0.5949 ± 0.0072 mPa·s
303.15 K, 101 kPa, x1 = 0.6033 | 0.5056 ± 0.0062 mPa·s
303.15 K, 101 kPa, x1 = 0.7025 | 0.4543 ± 0.0057 mPa·s
303.15 K, 101 kPa, x1 = 0.801 | 0.4254 ± 0.0054 mPa·s
303.15 K, 101 kPa, x1 = 0.8918 | 0.3943 ± 0.0051 mPa·s
303.15 K, 101 kPa, x2 = 0.0637 | 0.364 ± 0.003 mPa·s and 0.344 ± 0.003 mPa·s
303.15 K, 101 kPa, x2 = 0.1192 | 0.374 ± 0.003 mPa·s
303.15 K, 101 kPa, x2 = 0.2374 | 0.415 ± 0.004 mPa·s
303.15 K, 101 kPa, x2 = 0.3198 | 0.444 ± 0.004 mPa·s
303.15 K, 101 kPa, x2 = 0.4121 | 0.496 ± 0.004 mPa·s
303.15 K, 101 kPa, x2 = 0.5026 | 0.569 ± 0.004 mPa·s
303.15 K, 101 kPa, x2 = 0.6029 | 0.674 ± 0.005 mPa·s
303.15 K, 101 kPa, x2 = 0.6539 | 0.742 ± 0.005 mPa·s
303.15 K, 101 kPa, x2 = 0.6876 | 0.785 ± 0.006 mPa·s
303.15 K, 101 kPa, x2 = 0.7445 | 0.889 ± 0.006 mPa·s
303.15 K, 101 kPa, x2 = 0.7867 | 0.975 ± 0.007 mPa·s
303.15 K, 101 kPa, x2 = 0.8298 | 1.096 ± 0.007 mPa·s
303.15 K, 101 kPa, x2 = 0.884 | 1.23 ± 0.008 mPa·s
303.15 K, 101 kPa, x2 = 0.9695 | 1.544 ± 0.01 mPa·s
308.15 K, 101 kPa, x1 = 0.102 | 1.189 ± 0.014 mPa·s
308.15 K, 101 kPa, x1 = 0.2018 | 0.9659 ± 0.011 mPa·s
308.15 K, 101 kPa, x1 = 0.299 | 0.7776 ± 0.0092 mPa·s
308.15 K, 101 kPa, x1 = 0.4005 | 0.6444 ± 0.0077 mPa·s
308.15 K, 101 kPa, x1 = 0.5017 | 0.5454 ± 0.0066 mPa·s
308.15 K, 101 kPa, x1 = 0.6033 | 0.4781 ± 0.0059 mPa·s
308.15 K, 101 kPa, x1 = 0.7025 | 0.4308 ± 0.0054 mPa·s
308.15 K, 101 kPa, x1 = 0.801 | 0.3988 ± 0.0051 mPa·s
308.15 K, 101 kPa, x1 = 0.8918 | 0.3783 ± 0.0049 mPa·s
308.15 K, 101 kPa, x2 = 0.1596 | 0.36 ± 0.003 mPa·s
308.15 K, 101 kPa, x2 = 0.2647 | 0.399 ± 0.003 mPa·s
308.15 K, 101 kPa, x2 = 0.3436 | 0.435 ± 0.004 mPa·s
308.15 K, 101 kPa, x2 = 0.4385 | 0.489 ± 0.004 mPa·s
308.15 K, 101 kPa, x2 = 0.5026 | 0.532 ± 0.004 mPa·s
308.15 K, 101 kPa, x2 = 0.5659 | 0.584 ± 0.004 mPa·s
308.15 K, 101 kPa, x2 = 0.6029 | 0.619 ± 0.005 mPa·s
308.15 K, 101 kPa, x2 = 0.6877 | 0.728 ± 0.005 mPa·s
308.15 K, 101 kPa, x2 = 0.7447 | 0.817 ± 0.006 mPa·s
308.15 K, 101 kPa, x2 = 0.7867 | 0.909 ± 0.006 mPa·s
308.15 K, 101 kPa, x2 = 0.884 | 1.158 ± 0.008 mPa·s
308.15 K, 101 kPa, x2 = 0.9695 | 1.444 ± 0.009 mPa·s
308.15 K, 101.33 kPa, x1 = 0.0127 | 1.506 ± 0.012 mPa·s
308.15 K, 101.33 kPa, x2 = 0.0468 | 0.3551 ± 0.0042 mPa·s
308.15 K, 101.33 kPa, x2 = 0.0989 | 0.36 ± 0.0042 mPa·s
308.15 K, 101.33 kPa, x2 = 0.2079 | 0.3821 ± 0.0043 mPa·s
308.15 K, 101.33 kPa, x2 = 0.2621 | 0.4018 ± 0.0044 mPa·s
308.15 K, 101.33 kPa, x2 = 0.362 | 0.4432 ± 0.0046 mPa·s
308.15 K, 101.33 kPa, x2 = 0.4569 | 0.492 ± 0.0048 mPa·s
308.15 K, 101.33 kPa, x2 = 0.5667 | 0.5902 ± 0.0054 mPa·s
308.15 K, 101.33 kPa, x2 = 0.6636 | 0.7 ± 0.006 mPa·s
308.15 K, 101.33 kPa, x2 = 0.7478 | 0.8319 ± 0.0069 mPa·s
308.15 K, 101.33 kPa, x2 = 0.8202 | 0.98 ± 0.0077 mPa·s
308.15 K, 101.33 kPa, x2 = 0.9458 | 1.347 ± 0.011 mPa·s
